Values of other authors as cited in US20210299075A1 (priority 2020, published 2021).

Key:
adenovirus = conditions: Poli et al.; the only naked virus tested
[1] = tested on: herpes simplex virus, rhabdovirus, and other enveloped viruses; conditions: Poli et al.
[2] = Hendley et al.
[3] = frequent application

Molecule	antiviral activity against adenovirus (adenovirus)	antiviral activity against enveloped viruses [1]	antiviral activity [2]	irritation of the skin [3]
O=C(O)CC(O)(CC(=O)O)C(=O)O [citric acid]	not effective	effective		
CCO [ethyl alcohol]			performed poorly	
II [iodine]			all except iodine performed poorly	too irritating to the skin
O=C(O)CC(O)C(=O)O (stereo not drawn) [malic acid]	not effective	effective		
CC(=O)C(=O)O [pyruvic acid]	not effective	effective		
O=C(O)CCC(=O)O [succinic acid]	not effective	effective		
benzalkonium chloride [benzalkonium chloride (BAK)]			performed poorly	
